Data from patent US9724408B2, “Compositions and methods for activating stimulator of interferon gene-dependent signalling” (ADURO BIOTECH, INC., priority 2013, dated 2017).

What was measured:
Nuclease P1 (NP1) = target: T1, Nuclease P1 (NP1) (Penicillium citrinum, UniProt P24289); experiment: Resistance to Nuclease P1, read out in THP1-Blue ISG cells; settings: 2.5 mU NP1, 2 hr at 37° C., then 50 μM on THP1-Blue ISG cells, FIG. 12
T1 sequence (P24289 1-270): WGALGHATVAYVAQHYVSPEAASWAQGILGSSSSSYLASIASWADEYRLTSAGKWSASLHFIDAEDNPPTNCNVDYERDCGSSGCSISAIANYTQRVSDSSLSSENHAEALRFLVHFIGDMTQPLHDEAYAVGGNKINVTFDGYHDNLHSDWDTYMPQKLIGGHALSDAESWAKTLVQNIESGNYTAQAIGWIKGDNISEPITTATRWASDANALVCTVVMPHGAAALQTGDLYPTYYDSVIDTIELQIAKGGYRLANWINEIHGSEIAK

[1] = test system: snake venom phosphodiesterase (SVPD)
hSTING (Q) = experiment: IFNβ-LUC reporter in HEK293T cells expressing hSTING (Q); assay type: cell-based, human; settings: 10 μM, digitonin permeabilization, 6 hrs, FIG. 14
Excerpt: To determine the responsiveness of the five known natural human STING variants (referred to as WT, REF, HAQ, AQ and Q) to the native and derivative molecules, a panel of human embryonic kidney (HEK) 293T cell lines that expressed the human STING alleles was generated. […] MSCV2.2 plasmids encoding hSTING(REF)-GFP, hSTING(WT)-GFP, hSTING(HAQ)-GFP, hSTING(Q)-GFP and mSTING(WT)-GFP were obtained from the Vance Laboratory at UC Berkeley. hSTING(AQ)-GFP was derived from hSTING(Q)-GFP using a QuickChange Site-Directed Mutagenesis kit (Stratagene). The sequence of the hSTING(REF) allele is also known as the Barber allele (Ishikawa, H., and Barber, G. N. (2008). Nature 455, 674-678), and has the NCBI Reference Sequence NP_938023.1. The amino acid difference between hSTING(REF) and the other WT, HAQ, AQ and Q human STING alleles are shown in FIG. 13, which is adapted from Yi et al., Plos One 8: e77846 (2013). Stable HEK 293T-derived cell lines expressing each of the individual human STING alleles were generated by FACS sorting of GFP positive cells using a Mo Flo cell sorter at the Cancer Research Laboratory Flow Cytometry Facility at UC Berkeley. 1×10^4 HEK293T STING cells were seeded in 96-well plates and transiently transfected (using Lipofectamine 2000) with 50 ng of a human IFN-β reporter plasmid (pLuc-IFN-β) expressing the human IFN-β promoter upstream of a luciferase reporter and 10 ng of TK-renilla for normalization. 24 hours later, cells were stimulated with native and synthetic CDN derivative molecules using digitonin permeabalization to ensure uniform uptake. Each STING cell line was stimulated with 10 μM of cyclic [G(3′,5′)pA(3′,5′)p] (cGAMP), cyclic [G(2′,5′)pA(3′,5′)p] (ML-cGAMP), Rp, Rp dithio cyclic [G(2′,5′)pA(3′,5′)p] […] (CDA), Rp, Rp dithio cyclic [A(3′,5′)pA(3′,5′)p] (RR-CDA), cyclic [A(2′,5′)pA(3′,5′)p] (ML-CDA), Rp, Rp dithio cyclic [A(2′,5′)pA(3′,5′)p] (ML RR-CDA), cyclic [G(3′,5′)pG(3′,5′)p] (CDG), Rp, Rp dithio cyclic [G(3′,5′)pG(3′,5′)p] (RR-CDG), cyclic [G(2′,5′)pG(3′,5′)p] (ML-CDG) or Rp, Rp dithio cyclic [G(2′,5′)pG(3′,5′)p] (ML RR-CDG) in 25 ul digitonin buffer (50 mM HEPES, 100 mM KCL, 3 mM MgCl2, 0.1 mM DTT, 85 mM Sucrose, 0.2% BSA, 1 mM ATP, 0.1 mM GTP, 10 ug/ml digitonin). After 20 min, the stimulation mixtures were removed and 200 ul of standard RPMI media was added. After stimulation for 6 hrs, cell lysates were prepared and reporter gene activity measured using the Dual Luciferase Assay System (Promega) on a Spectramax M3 luminometer.

THP1-Blue™ ISG cells = experiment: Type I interferon induction in THP1-Blue ISG reporter cells (QUANTI-Blue, A655); assay type: cell-based, human; settings: 50 μM, mock treated, 16 hr incubation, FIG. 12
Procedure: To determine the relative level of type I interferon induced in human cells by each of the native and derivative molecules as a signature of adjuvant potency, 4×10^5 THP1-Blue™ ISG cells (a human monocyte cell line transfected with an IRF-inducible secreted embryonic alkaline phosphatase reporter gene (Invivogen) which express alkaline phosphatase under the control of a promoter comprised of five IFN-stimulated response elements) were incubated with 100 μM of cyclic [G(3′,5′)pG(3′,5′)p] (CDG), cyclic [G(2′,5′)pG(3′,5′)p] (mixed linkage, or ML-CDG), or HBSS for 30 minutes at 37° C. with 5% CO2. After 30 minutes, cells were washed and plated in 96-well dish in RPMI media containing 10% FBS, and incubated at 37° C. with 5% CO2. Cell culture supernatants from each sample were collected after overnight incubation, and 20 μL of the cell culture supernatants was added to 180 μL QUANTI-Blue reagent (Invivogen) and incubated for 45 minutes to evaluate type I interferon protein levels. Readings at Absorbance 655 nm were taken every 3 minutes using a Versa Max kinetic spectrophotometer (Molecular Diagnostics).
[…]. After 30 minutes, cells were washed and plated in 96-well dish in RPMI media containing 10% FBS, and incubated at 37° C. with 5% CO2. Cell culture supernatants from each sample were collected after overnight incubation, and 20 μL of the cell culture supernatants was added to 180 μL QUANTI-Blue reagent (Invivogen) and incubated for 45 minutes. Readings at Absorbance 655 nm were taken at 15 minutes using a SpectraMax spectrophotometer (Molecular Diagnostics).
The induction of type I interferon in human cells was measured to evaluate the potency of untreated and phosphodiesterase-treated oxo, Rp monothio and Rp, Rp dithio derivatives. […]. After 30 minutes, cells were washed and plated in a 96-well dish in RPMI media containing 10% FBS, and incubated at 37° C. with 5% CO2. Cell culture supernatants from each sample were collected after 16 hr incubation, and 20 μL of the cell culture supernatants was added to 180 μL QUANTI-Blue reagent (Invivogen) and incubated for 25 minutes to evaluate type I interferon protein levels. Readings at Absorbance 655 nm were measured with a Versa Max spectrophotometer (Molecular Diagnostics).

hSTING (REF) = target: T2, hSTING (REF) (Homo sapiens, UniProt Q86WV6); experiment: IFNβ-LUC reporter in HEK293T cells expressing hSTING (REF); assay type: cell-based; settings: 10 μM, digitonin permeabilization, 6 hrs, FIG. 14
T2 construct: GFP; expressed in transfected cells; plasmid from the Vance Laboratory, UC Berkeley
T2 sequence (Q86WV6 whole entry): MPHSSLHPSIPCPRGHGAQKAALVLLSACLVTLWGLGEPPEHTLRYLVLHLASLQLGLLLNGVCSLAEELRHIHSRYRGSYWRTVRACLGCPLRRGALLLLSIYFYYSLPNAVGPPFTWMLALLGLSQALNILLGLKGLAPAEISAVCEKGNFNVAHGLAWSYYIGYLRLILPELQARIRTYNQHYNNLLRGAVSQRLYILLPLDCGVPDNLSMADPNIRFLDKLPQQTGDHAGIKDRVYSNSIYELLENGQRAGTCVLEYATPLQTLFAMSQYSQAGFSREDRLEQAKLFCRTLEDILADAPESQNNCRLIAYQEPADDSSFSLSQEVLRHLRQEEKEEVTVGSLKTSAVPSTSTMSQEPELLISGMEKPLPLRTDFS
Procedure: MSCV2.2 plasmids encoding hSTING(REF)-GFP, hSTING(WT)-GFP, hSTING(HAQ)-GFP, hSTING(Q)-GFP and mSTING(WT)-GFP were obtained from the Vance Laboratory at UC Berkeley. hSTING(AQ)-GFP was derived from hSTING(Q)-GFP using a QuickChange Site-Directed Mutagenesis kit (Stratagene). […] 1×10^4 HEK293T STING cells were seeded in 96-well plates and transiently transfected (using Lipofectamine 2000) with 50 ng of a human IFN-β reporter plasmid (pLuc-IFN-β) expressing the human IFN-β promoter upstream of a luciferase reporter and 10 ng of TK-renilla for normalization. 24 hours later, cells were stimulated with native and synthetic CDN derivative molecules using digitonin permeabalization to ensure uniform uptake. Each STING cell line was stimulated with 10 μM of cyclic [G(3′,5′)pA(3′,5′)p] (cGAMP), cyclic [G(2′,5′)pA(3′,5′)p] […] (RR-CDA), cyclic [A(2′,5′)pA(3′,5′)p] […] (RR-CDG), cyclic [G(2′,5′)pG(3′,5′)p] […] (ML RR-CDG) in 25 ul digitonin buffer (50 mM HEPES, 100 mM KCL, 3 mM MgCl2, 0.1 mM DTT, 85 mM Sucrose, 0.2% BSA, 1 mM ATP, 0.1 mM GTP, 10 ug/ml digitonin). After 20 min, the stimulation mixtures were removed and 200 ul of standard RPMI media was added. After stimulation for 6 hrs, cell lysates were prepared and reporter gene activity measured using the Dual Luciferase Assay System (Promega) on a Spectramax M3 luminometer.

| Compound | type I interferon inducing activity after NP1 treatment (Nuclease P1 (NP1)) | type I interferon inducing activity after SVPD treatment [1] | IFNβ reporter response of hSTING (Q) (hSTING (Q)) | induction of type I interferon, untreated compounds (THP1-Blue™ ISG cells) | IFNβ reporter response of hSTING (REF) (hSTING (REF)) |
| --- | --- | --- | --- | --- | --- |
| Nc1ncnc2c1ncn2C1OC2COP(=O)(O)OC3C(O)C(COP(=O)(O)OC2C1O)OC3n1cnc2c(N)ncnc21 (stereo not drawn) [ML-CDA, cyclic-[A(2′,5′)pA(3′,5′)p]] | lost activity | lost activity | – | – | – |
| Nc1nc2c(ncn2[C@@H]2O[C@@H]3COP(=O)(O)O[C@H]4[C@@H](O)[C@H](n5cnc6c(N)ncnc65)O[C@@H]4COP(=O)(O)O[C@H]3[C@H]2O)c(=O)[nH]1 [cGAMP, cyclic [G(3′,5′)pA(3′,5′)p], reference compound] | – | – | responded poorly | – | – |
| Nc1ncnc2c1ncn2C1OC2COP(=O)(O)OC3C(O)C(COP(=O)(S)OC2C1O)OC3n1cnc2c(N)ncnc21 (stereo not drawn) [ML R-CDA, monothio-cyclic-[A(2′,5′)pA(3′,5′)Rp]] | retained activity after NP1 digestion | susceptible to SVPD treatment | – | – | – |
| Nc1ncnc2c1ncn2[C@@H]1O[C@@H]2CO[P@@](O)(=S)O[C@H]3[C@@H](O)[C@H](n4cnc5c(N)ncnc54)O[C@@H]3CO[P@@](O)(=S)O[C@H]2[C@H]1O [RR-CDA, Rp, Rp dithio cyclic [A(3′,5′)pA(3′,5′)p], reference compound] | retain their potency | retain their potency | – | more potent inducers of type I interferon than the oxo | – |
| cyclic [CDG, cyclic [G(3′,5′)pG(3′,5′)p], reference compound] | – | – | responded poorly | – | responded poorly |
| Nc1nc2c(ncn2[C@@H]2O[C@@H]3COP(=O)(S)O[C@H]4[C@@H](O)[C@H](n5cnc6c(N)ncnc65)O[C@@H]4CO[P@@](=O)(S)O[C@@H]2[C@@H]3O)c(=O)[nH]1 (stereo partly drawn) [ML RR-cGAMP, dithio-[RP,RP]-cyclic-[G(2′,5′)pA(3′,5′)p]] | – | – | responsive to stimulation | – | – |
| Nc1ncnc2c1ncn2[C@@H]1O[C@@H]2COP(=O)(O)O[C@H]3[C@@H](O)[C@H](n4cnc5c(N)ncnc54)O[C@@H]3COP(=O)(O)O[C@H]2[C@H]1O [CDA, cyclic[A(3′,5′)pA(3′,5′)p], reference compound] | lost activity | lost activity | responded poorly | – | responded poorly |
